Converted amounts (≈) assume the structure as drawn. Read-outs that look alike come from different tables or passages of the source.
How the values were obtained:
[1] = system: Moloney Sarcoma Virus (MSV); test: Inhibition of MSV-M foci formation in mouse embryo fibroblasts; format: cell-based; conditions: Fibroblast, 120 h; for activity at 0.0062 µg/mL / activity at 0.0125 µg/mL / activity at 0.025 µg/mL: read-out: MSV-M No. of foci; for IC50: read-out: MSV-M foci ID 50 (Inhibiting Dose 50%)
Procedure: (§1) Mouse embryo fibroblasts (MEF) were plated on 35 mm. Falcon plastic dishes and infected 24 hours later with Moloney Sarcoma Virus (MSV) in the presence of DEAE-dextran (25 μg./ml.). The samples were then treated for 3 days with different concentrations of the compounds of the invention. The number of foci of transformed cells was microscopically determined 5 days after the infection. Uninfected MEF were similarly treated and at the end of the experiment, the cells were counted in an haemocytometer. In all the experiments, the cells were incubated in a 5% CO2 incubator at 37° C.
(§2) For use in these tests the compounds were dissolved in distilled water or in 5% ethyl alcohol in distilled water and then diluted in culture medium.
The results of these tests are reported in Table I in terms of ID50 values (Inhibiting Dose 50%), calculated on dose-effects lines.

[2] = Proliferation of uninfected mouse embryo fibroblasts (MEF); format: cell-based; conditions: mouse, mouse embryo fibroblasts
Procedure: as §1, §2

Mouse Embryo Fibroblasts = test: as above; format: cell-based; conditions: Mus musculus, Fibroblast, 72 h, read-out: MEF No. of cells
Procedure: as §1, §2

[3] = Antitumor activity and toxicity on ascites Sarcoma 180 in CD 1 mice; format: in vivo; conditions: mouse, in vivo, ip, read-out: % Toxic Deaths
Procedure: (§3) The antitumor activity of the compounds of the invention was tested on ascites Sarcoma 180.
(§4) Three month old CD 1 mice were used. Sarcoma 180 ascites cells were inoculated intraperitoneally (10^6 cells/mouse). For use in these tests, the compounds were dissolved in distilled water or in 5% ethyl alcohol in distilled water, then diluted with Ringers solution and administered i.p. 1 day after the tumor implant (10 ml./kg. of body weight).
(§5) The toxicity of the test compounds was evaluated by macroscopic autoptic examination mainly in terms of reduction in spleen size. The comparison of the effectiveness of the test compounds is based on the maximum increase in median survival time, as compared to untreated controls, over the dose range used. The number of Long Term Survivors (LTS) refers to tumor-free mice at the end of the experiment (60 days). Solid Sarcoma 180 was implanted subcutaneously by trocar in the flank of CD 1 mice according to standard methods. The mice were treated i.v. for 5 consecutive days, starting 1 day after the tumor implant. On the 11th day the tumor volume was measured by means of a caliper and evaluated according to the formula (a^2 × b)/2, a and b being the minimum and the maximum diameters respectively.

ascites Sarcoma 180 = test: as above; format: in vivo; conditions: for % LTS: 60 days; for LTS (Long Term Survivors after 60 days): survivors/total; for Toxic Deaths: deaths/total
Procedure: as §3, §4, §5

[4] = 0.2 mg./kg. i.p. 1 day after tumor implant
[5] = 1 mg./kg. i.p. 1 day after tumor implant
[6] = 5 mg./kg. i.p. 1 day after tumor implant
[7] = 10 mg./kg. i.p. 1 day after tumor implant

| SMILES | activity at 0.0062 µg/mL [1] [%] | activity at 0.0125 µg/mL [1] [%] | activity at 0.025 µg/mL [1] [%] | IC50 [1] [ng/mL] | activity at 0.0062 µg/mL (Mouse Embryo Fibroblasts) [%] | activity at 0.0125 µg/mL (Mouse Embryo Fibroblasts) [%] | activity at 0.025 µg/mL (Mouse Embryo Fibroblasts) [%] | mortality ([3]; 0.2 mg./kg. i.p.) [%] | mortality ([3]; 1 mg./kg. i.p.) [%] | mortality ([3]; 5 mg./kg. i.p.) [%] | % LTS (ascites Sarcoma 180; [4]) [%] | LTS (Long Term Survivors after 60 days) (ascites Sarcoma 180; [4]) | Toxic Deaths (ascites Sarcoma 180; 0.2 mg./kg. i.p.) | T/C (median survival time, % over untreated controls) (ascites Sarcoma 180; [5]) [%] | % LTS (ascites Sarcoma 180; [5]) [%] | LTS (Long Term Survivors after 60 days) (ascites Sarcoma 180; [5]) | Toxic Deaths (ascites Sarcoma 180; 1 mg./kg. i.p.) | T/C (median survival time, % over untreated controls) (ascites Sarcoma 180; [6]) [%] | % LTS (ascites Sarcoma 180; [6]) [%] | LTS (Long Term Survivors after 60 days) (ascites Sarcoma 180; [6]) | other results |
| --- | --- | --- | --- | --- | --- | --- | --- | --- | --- | --- | --- | --- | --- | --- | --- | --- | --- | --- | --- | --- | --- |
| COc1cccc2c1C(=O)c1c(O)c3c(c(O)c1C2=O)C[C@@](O)(C(=O)CO)C[C@@H]3O[C@H]1C[C@H](N)[C@H](O)[C@H](C)O1 [Adriamycin, reference compound] | 46 | 24 | 0 | 5 (≈ 0.0092 µM) | 61 | 42 | 37 | 0 | 0 | 10 | 16 | 5/30 | 0/30 | 177 | 45 | 13/29 | 0/29 | 200 | 19 | 9/47 | IC50 at 72 h ([2]; calculated on dose-effects lines, uninfected MEF, 3 days treatment, read-out: MEF proliferation ID 50 (Inhibiting Dose 50%)): 10 ng/mL (≈ 0.0184 µM); mortality ([3]; 10 mg./kg. i.p.): 20%; Toxic Deaths (ascites Sarcoma 180; 5 mg./kg. i.p.): 5/47; % LTS (ascites Sarcoma 180; [7]): 0%; LTS (Long Term Survivors after 60 days) (ascites Sarcoma 180; [7]): 0/10; Toxic Deaths (ascites Sarcoma 180; 10 mg./kg. i.p.): 2/10 |
| COc1cccc2c1C(=O)c1c(O)c3c(c(O)c1C2=O)C[C@@](O)(C(C)=O)C[C@@H]3O[C@H]1C[C@H](N)[C@H](O)[C@H](C)O1 [Daunomycin] | 51 | 17 | 0 | 6 (≈ 0.0114 µM) | 55 | 45 | 22 | 0 | 0 | 15 | 5 | 1/20 | 0/20 | 193 | 45 | 9/20 | 0/20 | 173 | 15 | 3/20 | IC50 at 72 h [2]: 8.6 ng/mL (≈ 0.0163 µM); T/C (median survival time, % over untreated controls) (ascites Sarcoma 180; [4]): 106%; Toxic Deaths (ascites Sarcoma 180; 5 mg./kg. i.p.): 3/20 |

Reference: patent US4024224A, “14-Aminodaunomycins, their preparation and use” (priority 1974, dated 1977)
